# In PubChem BioAssay (NCI):
#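 Method: 48-hour compound exposure of cells in 96-well plates, five concentrations, linear interpolation of endpoints. GI50 marks 50% less growth. At the TGI there is no net growth.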
# How the values were obtained:
# Experiment in all cases: NCI tumour cell line growth inhibition, 48 h
# MDA-MB-231 breast = test system: MDA-MB-231 breast
# U251 CNS = test system: U251 CNS
# SF-295 CNS = test system: SF-295 CNS
# HT29 colon = test system: HT29 colon
# M14 melanoma = test system: M14 melanoma
# K-562 leukemia = test system: K-562 leukemia
# DU-145 prostate = test system: DU-145 prostate
# ACHN renal = test system: ACHN renal
# A549 NSCLC = test system: A549 NSCLC
# RXF 393 renal = test system: RXF 393 renal
# NCI-H226 lung = test system: NCI-H226 lung
# MALME-3M melanoma = test system: MALME-3M melanoma
# RPMI-8226 leukemia = test system: RPMI-8226 leukemia
# SNB-75 CNS = test system: SNB-75 CNS
# SN12C renal = test system: SN12C renal
# SR leukemia = test system: SR leukemia
# KM12 colon = test system: KM12 colon
# T-47D breast = test system: T-47D breast
# MDA-MB-435 = test system: MDA-MB-435
# NCI-H460 lung = test system: NCI-H460 lung
# HOP-62 NSCLC = test system: HOP-62 NSCLC
# A498 renal = test system: A498 renal
# LOX IMVI melanoma = test system: LOX IMVI melanoma
# EKVX NSCLC = test system: EKVX NSCLC
# NCI-H522 lung = test system: NCI-H522 lung
# MOLT-4 leukemia = test system: MOLT-4 leukemia
# SK-MEL-5 melanoma = test system: SK-MEL-5 melanoma
# SF-268 CNS = test system: SF-268 CNS
# HCT-15 colon = test system: HCT-15 colon
# HS 578T breast = test system: HS 578T breast
# IGROV1 ovarian = test system: IGROV1 ovarian
# HOP-92 NSCLC = test system: HOP-92 NSCLC
# UACC-62 melanoma = test system: UACC-62 melanoma
# OVCAR-8 ovarian = test system: OVCAR-8 ovarian
# NCI-H23 lung = test system: NCI-H23 lung
# CCRF-CEM leukemia = test system: CCRF-CEM leukemia
# TK-10 renal = test system: TK-10 renal
# OVCAR-5 ovarian = test system: OVCAR-5 ovarian
# HL-60(TB) leukemia = test system: HL-60(TB) leukemia
# BT-549 breast = test system: BT-549 breast
# OVCAR-4 ovarian = test system: OVCAR-4 ovarian
# SW-620 colon = test system: SW-620 colon
# UO-31 renal = test system: UO-31 renal
# SK-MEL-2 melanoma = test system: SK-MEL-2 melanoma
# CAKI-1 renal = test system: CAKI-1 renal
# UACC-257 melanoma = test system: UACC-257 melanoma
# OVCAR-3 ovarian = test system: OVCAR-3 ovarian
# SNB-19 CNS = test system: SNB-19 CNS
# SK-OV-3 ovarian = test system: SK-OV-3 ovarian
# SK-MEL-28 melanoma = test system: SK-MEL-28 melanoma
# SF-539 CNS = test system: SF-539 CNS
# HCC-2998 colon = test system: HCC-2998 colon
# 786-0 renal = test system: 786-0 renal
# HCT-116 colon = test system: HCT-116 colon
# COLO 205 colon = test system: COLO 205 colon
# NCI/ADR-RES ovarian = test system: NCI/ADR-RES ovarian
smiles,measurement,setting,value
COC(=O)c1c2c(c(C)[n+]([O-])c1C)C(=O)C=CC2=O,GI50,MDA-MB-231 breast,2680 nM
same,TGI,MDA-MB-231 breast,8.28 µM
same,GI50,U251 CNS,1480 nM
same,TGI,U251 CNS,2830 nM
same,GI50,SF-295 CNS,1780 nM
same,TGI,SF-295 CNS,3.34 µM
same,GI50,HT29 colon,2410 nM
same,TGI,HT29 colon,6.54 µM
same,GI50,M14 melanoma,1780 nM
same,TGI,M14 melanoma,3.45 µM
same,GI50,K-562 leukemia,3.04 µM
same,TGI,K-562 leukemia,36 µM
same,GI50,DU-145 prostate,1820 nM
same,TGI,DU-145 prostate,3.22 µM
same,GI50,ACHN renal,1900 nM
same,TGI,ACHN renal,3.77 µM
same,GI50,A549 NSCLC,3.12 µM
same,TGI,A549 NSCLC,11.6 µM
same,GI50,RXF 393 renal,1420 nM
same,TGI,RXF 393 renal,2880 nM
same,GI50,NCI-H226 lung,1420 nM
same,TGI,NCI-H226 lung,2980 nM
same,GI50,MALME-3M melanoma,1530 nM
same,TGI,MALME-3M melanoma,2920 nM
same,GI50,RPMI-8226 leukemia,2070 nM
same,TGI,RPMI-8226 leukemia,5.29 µM
same,GI50,SNB-75 CNS,1720 nM
same,TGI,SNB-75 CNS,3.12 µM
same,GI50,SN12C renal,1620 nM
same,TGI,SN12C renal,3.1 µM
same,GI50,SR leukemia,2280 nM
same,TGI,SR leukemia,8.19 µM
same,GI50,KM12 colon,1990 nM
same,TGI,KM12 colon,4.77 µM
same,GI50,T-47D breast,1970 nM
same,TGI,T-47D breast,7.26 µM
same,GI50,MDA-MB-435,1790 nM
same,TGI,MDA-MB-435,3.31 µM
same,GI50,NCI-H460 lung,2720 nM
same,TGI,NCI-H460 lung,7.4 µM
same,GI50,HOP-62 NSCLC,744 nM
same,TGI,HOP-62 NSCLC,2270 nM
same,GI50,A498 renal,3.58 µM
same,TGI,A498 renal,13.9 µM
same,GI50,LOX IMVI melanoma,1440 nM
same,TGI,LOX IMVI melanoma,3.04 µM
same,GI50,EKVX NSCLC,2020 nM
same,TGI,EKVX NSCLC,5.12 µM
same,GI50,NCI-H522 lung,1660 nM
same,TGI,NCI-H522 lung,3.67 µM
same,GI50,MOLT-4 leukemia,1690 nM
same,TGI,MOLT-4 leukemia,4.65 µM
same,GI50,SK-MEL-5 melanoma,1140 nM
same,TGI,SK-MEL-5 melanoma,2410 nM
same,GI50,SF-268 CNS,2050 nM
same,TGI,SF-268 CNS,5.52 µM
same,GI50,HCT-15 colon,1430 nM
same,TGI,HCT-15 colon,3.31 µM
same,GI50,HS 578T breast,2840 nM
same,TGI,HS 578T breast,8.64 µM
same,GI50,IGROV1 ovarian,1740 nM
same,TGI,IGROV1 ovarian,4.25 µM
same,GI50,HOP-92 NSCLC,2120 nM
same,TGI,HOP-92 NSCLC,6.03 µM
same,GI50,UACC-62 melanoma,1630 nM
same,TGI,UACC-62 melanoma,3.21 µM
same,GI50,OVCAR-8 ovarian,339 nM
same,TGI,OVCAR-8 ovarian,1240 nM
same,GI50,NCI-H23 lung,1630 nM
same,TGI,NCI-H23 lung,4.27 µM
same,GI50,CCRF-CEM leukemia,55.9 nM
same,TGI,CCRF-CEM leukemia,7.3 µM
same,GI50,TK-10 renal,2740 nM
same,TGI,TK-10 renal,7.74 µM
same,GI50,OVCAR-5 ovarian,1760 nM
same,TGI,OVCAR-5 ovarian,3.23 µM
same,GI50,HL-60(TB) leukemia,2160 nM
same,TGI,HL-60(TB) leukemia,4.84 µM
same,GI50,BT-549 breast,1720 nM
same,TGI,BT-549 breast,3.14 µM
same,GI50,OVCAR-4 ovarian,1200 nM
same,TGI,OVCAR-4 ovarian,2470 nM
same,GI50,SW-620 colon,1540 nM
same,TGI,SW-620 colon,3.74 µM
same,GI50,UO-31 renal,1690 nM
same,TGI,UO-31 renal,3.39 µM
same,GI50,SK-MEL-2 melanoma,1890 nM
same,TGI,SK-MEL-2 melanoma,3.99 µM
same,GI50,CAKI-1 renal,1950 nM
same,TGI,CAKI-1 renal,4.2 µM
same,GI50,UACC-257 melanoma,1570 nM
same,TGI,UACC-257 melanoma,3.34 µM
same,GI50,OVCAR-3 ovarian,314 nM
same,TGI,OVCAR-3 ovarian,1050 nM
same,GI50,SNB-19 CNS,1670 nM
same,TGI,SNB-19 CNS,3.31 µM
same,GI50,SK-OV-3 ovarian,2260 nM
same,TGI,SK-OV-3 ovarian,5.38 µM
same,GI50,SK-MEL-28 melanoma,1960 nM
same,TGI,SK-MEL-28 melanoma,3.6 µM
same,GI50,SF-539 CNS,1800 nM
same,TGI,SF-539 CNS,3.2 µM
same,GI50,HCC-2998 colon,1640 nM
same,TGI,HCC-2998 colon,3.13 µM
same,GI50,786-0 renal,2060 nM
same,TGI,786-0 renal,4.51 µM
same,GI50,HCT-116 colon,945 nM
same,TGI,HCT-116 colon,7.5 µM
same,GI50,COLO 205 colon,1640 nM
same,TGI,COLO 205 colon,3.35 µM
same,GI50,NCI/ADR-RES ovarian,2330 nM
same,TGI,NCI/ADR-RES ovarian,7.78 µM
